The test system of data set [1] is HCEC. Briefly: Cytotoxicity against HCEC after 24 hrs by sulforhodamine B assay. Type of data set: cell-based. Particulars: human. In general terms: In SRB staining, fixed cells bind dye roughly in proportion to their protein.
In data set [2] the target is T1, 5'-nucleotidase (Homo sapiens, UniProt P21589). Briefly: Inhibition of human recombinant ecto-5'-nucleotidase expressed in african green monkey COS7 cells using adenosine monophosphate as substrate preincubated for 10 mins before substrate addition measured after 10 mins by capillary electrophoresis. Type of data set: cell-based, COS-7.
T1 sequence (P21589 whole entry): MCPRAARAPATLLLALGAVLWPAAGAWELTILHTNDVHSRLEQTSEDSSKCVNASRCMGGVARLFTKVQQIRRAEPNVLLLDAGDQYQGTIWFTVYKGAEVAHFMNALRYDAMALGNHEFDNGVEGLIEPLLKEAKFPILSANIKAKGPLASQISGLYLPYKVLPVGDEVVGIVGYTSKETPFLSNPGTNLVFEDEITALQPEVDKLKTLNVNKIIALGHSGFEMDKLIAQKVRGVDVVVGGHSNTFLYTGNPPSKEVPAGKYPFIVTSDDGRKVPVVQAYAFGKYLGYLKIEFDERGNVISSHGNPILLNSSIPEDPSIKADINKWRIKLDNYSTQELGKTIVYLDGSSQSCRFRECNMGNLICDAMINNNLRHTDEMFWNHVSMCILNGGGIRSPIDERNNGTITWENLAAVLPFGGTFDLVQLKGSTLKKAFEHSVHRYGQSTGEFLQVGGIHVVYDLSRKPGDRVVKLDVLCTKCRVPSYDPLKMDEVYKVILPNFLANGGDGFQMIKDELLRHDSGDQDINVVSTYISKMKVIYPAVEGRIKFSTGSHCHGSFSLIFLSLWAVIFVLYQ
Data set [3] concerns the target T2, 5'-nucleotidase (Rattus norvegicus, UniProt P21588).
T2 sequence (P21588 whole entry): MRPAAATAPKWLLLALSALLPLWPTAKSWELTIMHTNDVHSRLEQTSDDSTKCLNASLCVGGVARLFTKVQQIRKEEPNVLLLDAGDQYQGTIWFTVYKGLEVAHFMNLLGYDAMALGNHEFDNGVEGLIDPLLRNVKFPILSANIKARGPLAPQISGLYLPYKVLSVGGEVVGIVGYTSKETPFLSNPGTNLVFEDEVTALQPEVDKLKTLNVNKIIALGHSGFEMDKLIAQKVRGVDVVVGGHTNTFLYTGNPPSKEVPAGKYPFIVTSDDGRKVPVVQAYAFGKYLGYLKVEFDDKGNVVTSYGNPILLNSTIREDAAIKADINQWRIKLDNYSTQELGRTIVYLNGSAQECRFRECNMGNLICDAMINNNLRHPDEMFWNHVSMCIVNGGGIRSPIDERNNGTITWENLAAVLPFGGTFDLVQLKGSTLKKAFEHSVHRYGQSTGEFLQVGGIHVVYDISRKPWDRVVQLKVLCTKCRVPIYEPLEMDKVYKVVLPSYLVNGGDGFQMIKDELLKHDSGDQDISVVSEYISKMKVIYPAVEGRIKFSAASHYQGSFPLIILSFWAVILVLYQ
Briefly: Inhibition of rat recombinant ecto-5'-nucleotidase expressed in african green monkey COS7 cells using adenosine monophosphate as substrate preincubated for 10 mins before substrate addition measured after 10 mins by capillary electrophoresis. Type of data set: cell-based, COS-7.

Data set [4] deals with NCI-H157. Briefly: Cytotoxicity against human NCI-H157 cells at 100 uM after 24 hrs by sulforhodamine B assay. It is filed as functional.
Data set [5] addresses T1, 5'-nucleotidase. The data set can be described thus: Inhibition of human recombinant ecto-5'-nucleotidase expressed in african green monkey COS7 cells using adenosine monophosphate as substrate at 1 mM preincubated for 10 mins before substrate addition measured after 10 mins by capillary electrophoresis. It is filed as cell-based. Particulars: COS-7.
For data set [6], the target named is T3, 5'-nucleotidase (Rattus norvegicus) (UniProt P21588).
T3 sequence (whole entry): T2 sequence (P21588 whole entry)
Briefly: Inhibition of rat recombinant ecto-5'-nucleotidase expressed in african green monkey COS7 cells using adenosine monophosphate as substrate at 1 mM preincubated for 10 mins before substrate addition measured after 10 mins by capillary electrophoresis. It is filed as cell-based. Particulars: COS-7.

In data set [7] the test system is NCI-H157. Briefly: Cytotoxicity against human NCI-H157 cells at 10 uM after 24 hrs by sulforhodamine B assay. It is filed as functional.

The results in this text go back to ChEMBL document CHEMBL3085736, “Identification of sulfonic acids as efficient ecto-5'-nucleotidase inhibitors” (Eur J Med Chem, 2013).

A value given as a limit tells only on which side of the number the result lay.

Consider `Cc1ccc2nc(-c3ccc(N)cc3)sc2c1S(=O)(=O)O`, for which the Activity result in data set [1] was “Non-toxic”; in data set [4], less than 40%. Also, the IC50 in data set [2] is 13.5 µM; in data set [3], 18.6 µM.

Take `CC[C@]1(O)C[C@H]2CN(CCc3c([nH]c4ccccc34)[C@@](C(=O)OC)(c3cc4c(cc3OC)N(C=O)[C@H]3[C@@](O)(C(=O)OC)[C@H](OC(C)=O)[C@]5(CC)C=CCN6CC[C@]43[C@@H]65)C2)C1` [VINCRISTINE]: in data set [4], the Activity amounted to 47%.

`Nc1cc(S(=O)(=O)[O-])cc2ccccc12.[Na+]`: the Activity result is listed as “Non-toxic” in data set [1] and 48% in data set [4]. The figures for the inhibition in data set [5] and in data set [6] were 35% and 20%, respectively.

Turning to `NS(=O)(=O)O` [SULFAMATE], the Activity entry in data set [1] is “Non-toxic”; in data set [4] it was less than 40%. Also, the values for the IC50 in data set [2] and in data set [3] were 42.1 µM and 77.3 µM, respectively.

Turning to `Nc1c(S(=O)(=O)O)cc(Br)c2c1C(=O)c1ccccc1C2=O`, the Activity entry in data set [1] was “Non-toxic”; in data set [4] it was less than 40%. Moreover, the figures for the inhibition in data set [5] and in data set [6] were 4% and 27%, respectively.

On to `Nc1ccc(S(=O)(=O)O)cc1`, for which the values for the Activity entry in data set [1] and in data set [4] were “Non-toxic” and less than 40%, respectively. Also, the half-inhibitory concentration (IC50) in data set [2] amounted to 8.2 µM; in data set [3], 70.1 µM.

With `Nc1cc(S(=O)(=O)O)cc2cc(S(=O)(=O)O)cc(O)c12`, the Activity result in data set [1] is recorded as “Non-toxic”; in data set [4] it was less than 40%. In addition, the figures for the IC50 in data set [2] and in data set [3] were 21.8 µM and 76.6 µM, respectively.

In the case of `Nc1ccc(Nc2ccc([N+](=O)[O-])cc2)c(S(=O)(=O)O)c1`, the Activity result in data set [1] was “Non-toxic”; in data set [4], 42%. The IC50 in data set [2] came to 47.6 µM; in data set [3], 72.9 µM.

In the case of `Nc1ccc(S(=O)(=O)O)c2ccccc12`, the figures for the Activity entry in data set [1] and in data set [4] were “Non-toxic” and less than 40%, respectively. Moreover, the inhibition in data set [5] was 43%; in data set [6], 28%.

`CC1=NN(c2ccc(S(=O)(=O)O)cc2)C(=O)C1`: the Activity result is reported as “Non-toxic” in data set [1], 40% in data set [7] and 72% in data set [4]. The IC50 came out at 6.1 µM in data set [2] and 44.3 µM in data set [3].

Regarding `Nc1ccc2cc(S(=O)(=O)O)cc(O)c2c1`, the Activity result in data set [1] is “Non-toxic”; in data set [4], less than 40%. The IC50 in data set [2] was found to be 1.32 µM; in data set [3], 10.4 µM.

Regarding `CC1=NN(c2ccccc2)C(=O)C1` [EDARAVONE], the Activity result is listed as “Non-toxic” in data set [1], 40% in data set [7] and 70% in data set [4]. Besides, the inhibition came to 15% in data set [5] and 29% in data set [6].

With `NC(=O)Nc1ccc2cc(S(=O)(=O)O)cc(O)c2c1`, the Activity entry in data set [1] is “Non-toxic”; in data set [4], less than 40%. In addition, the IC50 in data set [2] was 30.5 µM. Besides, in data set [6], the inhibition is 40%.

For the compound `Nc1c(O)cc(S(=O)(=O)O)c2cc([N+](=O)[O-])ccc12`, the results for the Activity entry in data set [1] and in data set [4] were “Non-toxic” and less than 40%, respectively. Also, the IC50 is 41 µM in data set [2] and 31.6 µM in data set [3].

For orientation: IC50 means the concentration needed to halve the response being measured. One may read the inhibition as the change of the read-out against control, counted positive when it falls.
